Reference: publication PMC6112376, “Comprehensive Analyses and Prioritization of Tox21 10K Chemicals Affecting Mitochondrial Function by in-Depth Mechanistic Studies” (Environmental Health Perspectives, 2018)
Like-named read-outs stand apart in the source and are kept apart here.

Tests used:
[1] = system: HepG2 cells; details: cited from earlier work; for IC50: read-out: MMP assays IC50 (µM), qHTS-HepG2
[2] = system: HepG2 cells; assay: cells; details: Homo sapiens; for IC50: HepG2, read-out: MMP assays IC50 (µM) HepG2; for Emax: HepG2, read-out: MMP assays efficacy (%) HepG2
[3] = system: rat primary hepatocytes; assay: MMP assay in rat primary hepatocytes; details: for IC50: Rattus norvegicus, Hepatocyte, read-out: MMP assays IC50 (µM) Rat Hepatocytes
[4] = system: rat primary hepatocytes

Row | Structure (SMILES) | MMP assays efficacy (%) qHTS-HepG2 [1] | IC50 [1] | IC50 [2] | Emax [2] | IC50 [3] | MMP assays efficacy (%) Rat Hepatocytes [4] | MMP assays IC50 (µM) Rat Hepatocytes [3]
1 | O=C(Nc1ccccc1)Nc1ccnc(Cl)c1 [Forchlorfenuron] | -112±3% | 0.45 ± 0.13 µM | 1 µM | 104% | 2.19 ± 1.97 µM | -108±37% | –
2 | C[C@]12CC[C@@H]3c4ccc(O)cc4C[C@@H](CCCCCCCCC[S+]([O-])CCCC(F)(F)C(F)(F)F)[C@H]3[C@@H]1CC[C@@H]2O (some centres unmarked) [Fulvestrant] | -99±7% | 5.86 ± 0.82 µM | 5.48 µM | 94% | 8.84 ± 12 µM | -48±0% | –
3 | Cc1cc(O)c2c3c4c(cc(O)c13)C(C)(C)C(=O)c1c(O)cc(O)c(c1-4)C2=O [Geliomycin] | -120±11% | 0.52 ± 0.04 µM | 0.19 µM | 94% | 0.55 ± 0.31 µM | -101±18% | –
4 | O=c1c(-c2ccc(O)cc2)coc2cc(O)cc(O)c12 [Genistein] | -101±1% | 6.34 ± 0.77 µM | 10 µM | 96% | 33.7 ± 19.5 µM | -70±41% | –
5 | CN(C)c1ccc(C(=C2C=CC(=[N+](C)C)C=C2)c2ccc(N(C)C)cc2)cc1 [Gentian violet] | -92±4% | 0.08 ± 0.04 µM | 0.35 µM | 92% | 1.34 ± 0.11 µM | -70±14% | –
6 | ClC1=C(Cl)C2(Cl)C3C(Cl)C=CC3C1(Cl)C2(Cl)Cl (centres unmarked) [Heptachlor] | – | 39.4 ± 17.9 µM | 31.6 µM | 87% | – | inactive | inactive
7 | Oc1c(Cl)cc(Cl)c(Cl)c1Cc1c(O)c(Cl)cc(Cl)c1Cl [Hexachlorophene] | -101±7% | 0.7 ± 0.46 µM | 0.63 µM | 115% | 1 ± 0.74 µM | -103±31% | –
8 | COC(=O)N(C(=O)N1CO[C@@]2(C(=O)OC)Cc3cc(Cl)ccc3C2=N1)c1ccc(OC(F)(F)F)cc1 [Indoxacarb] | -83±20% | 12.7 ± 3.65 µM | 15.3 µM | 57% | 34.4 ± 5.58 µM | -88±26% | –
9 | O=C1C(I)=CC(=C(c2cc(I)c(O)c(I)c2)c2ccccc2C(=O)O)C=C1I [Iodophthalein] | -95±6% | 5.31 ± 1.76 µM | 4.35 µM | 98% | 7.32 ± 0.6 µM | -96±3% | –
10 | CCC(C)(CC)c1cc(NC(=O)c2c(OC)cccc2OC)on1 [Isoxaben] | -80±23% | 26.3 ± 5.75 µM | 14.1 µM | 60% | – | inactive | inactive
11 | Cc1cc(NC(=O)C2=C(O)c3ccccc3S(=O)(=O)N2C)no1 [Isoxicam] | -66±27% | 5.18 ± 2.9 µM | 2.75 µM | 38% | 4.92 ± 0.8 µM | -60±55% | –
12 | O=c1c(O)c(-c2ccc(O)cc2)oc2cc(O)cc(O)c12 [Kaempferol] | -100±8% | 2.56 ± 3.04 µM | 6.76 µM | 96% | 24.1 ± 8.76 µM | -84±55% | –
13 | O=C1C2(Cl)C3(Cl)C4(Cl)C(Cl)(Cl)C5(Cl)C3(Cl)C1(Cl)C5(Cl)C24Cl (centres unmarked) [Kepone] | -101±8% | 0.93 ± 0.65 µM | 2.82 µM | 99% | 10.2 ± 9.25 µM | -107±26% | –
14 | CC(=O)N1CCN(c2ccc(OCC3COC(Cn4ccnc4)(c4ccc(Cl)cc4Cl)O3)cc2)CC1 (centres unmarked) [Ketoconazole] | -56±14% | 10.8 ± 3.25 µM | 5.48 µM | 55% | – | inactive | inactive
15 | CC(=O)O[C@H]1C[C@H](O[C@H]2[C@@H](O)C[C@H](O[C@H]3[C@@H](O)C[C@H](OC4CC[C@@]5(C)[C@H](CC[C@@H]6[C@@H]5CC[C@]5(C)[C@@H](C7=CC(=O)OC7)CC[C@]65O)C4)O[C@@H]3C)O[C@@H]2C)O[C@H](C)[C@H]1O[C@@H]1O[C@H](CO)[C@@H](O)[C@H](O)[C@H]1O (some centres unmarked) [Lanatoside A] | -69±2% | 0.43 ± 0.04 µM | 0.14 µM | 91% | – | inactive | inactive
